Reference: US4410525A, “Alkoxy pyrazole derivatives and compositions” (Establissements Nativelle S.A., priority 1981, dated 1983)
Like-named read-outs stand apart in the source and are kept apart here.

How the values were obtained:
[1] = system: isolated guinea pig auricle; experiment: Maximum stimulation frequency test on isolated guinea pig auricle; settings: Cavia porcellus; 10 mg/l; read-out: Δ% MFS (decrease of the maximum frequency followed)
Method: The maximum frequency test carried out studied the maximum stimulation frequency which can cause contraction of an isolated guinea pig auricle placed in a solution containing a derivative of the invention. The measurement was carried out before (control period) and then after introduction of the derivative into the solution.

[2] = Acute toxicity (lethal dose 50) in the mouse; settings: in vivo
Text: The acute toxicity of the deriatives of the invention were studied by oral administration (P.O) to the mouse (10 animals, 5 males and 5 females per dose) and calculation of the lethal dose 50 (LD 50) in accordance with the method of Litchfield and Wilcoxon (J. Pharmacol., 96, 99-113 (1949)). Table 1 gives the LD 50 values of the derivatives of the invention.
In certain cases, the LD 50 was also studied after intraperitoneal injection (I.P.) of the derivatives.

[3] = system: ventricular arrhythmias induced by aconitine in the anesthetized rat; experiment: Antiarrhythmic test with aconitine on the rat; type: in vivo
Method: The derivatives of the invention were used in the test with aconitine on the rat. For this test, the anesthetized rat was intoxicated by an intravenous perfusion of aconitine (solution of aconitine nitrate: 15 mg/l; speed of perfusion: 0.4 ml/min) while its electrocardiogram was recorded permanently. During perfusion at constant speed, the time necessary for the appearance of ventricular arrhythmias, successively ventricular extrasystoles (ESV), ventricular tachycardium (TV) and ventricular fibrillation (FV) was measured.
The animals were divided into a control group (untreated) and treated group (different doses). The results are expressed as a percentage of prolonging the time of the appearance of the arrhythmias in the treated groups in relation to the control group. This prolongation of arrhythmia appearance time therefore corresponds to myocardiac protection against the arrhythmic effects of aconitine.

[4] = system: anoxic ventricular fibrillation in mice; experiment: Cardiac antifibrillatory activity on the mouse (Lawson test); type: in vivo; settings: ip, intraperitoneal, 10 minutes before chloroform, read-out: ED 50 (protects half the mice against anoxic ventricular fibrillation)
Method: Cardiac antifibrillatory activity of the derivatives of the invention has been verified on the mouse using the Lawson test, in accordance with the method described by J. W. Lawson, J. Pharmacol. Exp. Therp. 160, 22-31 (1968), and C. Narcisse et al., Ann. Pharm. Fr. 37, 325-330 (1979).
The mice (20 per dose) received an intraperitoneal injection of the derivative 10 minutes before being placed in a chloroform saturated atmosphere. As soon as respiratory arrest occurred, the thorax was opened (5 to 10 seconds) and the state of the heart was checked: presence or absence of ventricular fibrillation. The efficacy dose 50 (ED 50) of the derivative being studied is the dose which protects half the mice against anoxic ventricular fibrillation.

[5] = system: anesthetized dog; experiment: Hemodynamic effects on the anesthetized dog; type: in vivo; settings: for (dp/dt)l/p, percentage of variation / Cardiac flow, percentage of variation / Cardiac frequency, percentage of variation / Contraction force of the myocardium, percentage of variation / Systolic arterial pressure, percentage of variation / Systolic volume, percentage of variation: Example 2 series, vs pretreatment
Method: Cardiovascular tolerance was studied on the isolated guinea pig auricle, on the anesthetized rat and on the anesthetized dog.
On the anesthetized dog, the results obtained with respect to hemodynamic tolerance are summarized in Table 2 below which indicates the percentages of variation of the hemodynamic parameters in relation to the pre-treatment control period for the derivatives of Examples 2 and 4.
The parameters were recorded by means of:
Catheters connected to pressure sensors (arterial pressure, left ventricular pressure and its first derivative dp/dt);
Electromagnetic flowmeter on the aorta (aortic flow);
Strain gauge placed on the left ventricular myocardium (force of myocardiac contraction).
The derivatives were injected intraveneously, one dose approximately every 30 minutes and their effects were measured 20 minutes after the completion of the injection (length of the injection 2 minutes).

[6] = system: rabbit cornea; experiment: Local contact anesthesia on the rabbit cornea; type: in vivo; settings: solution at 0.25% or 1% by weight, eyewash instillation
Text: For example, the derivatives described in Examples 2, 3, 4, 6, 7 and 9 are local anesthetics (100% anesthesia) in a solution at 0.25% or 1% by weight.

[7] = ip, intraperitoneal (I.P.), read-out: LD 50 I.P.
[8] = oral (P.O.), 5 males and 5 females per dose, read-out: LD 50 P.O.
[9] = read-out: Prolongation of time of appearance of ventricular extrasystoles (ESV)
[10] = read-out: Prolongation of time of appearance of ventricular fibrillation (FV)
[11] = read-out: Prolongation of time of appearance of ventricular tachycardium (TV)
[12] = anesthetized dog, i.v., cumulative dose

Cc1c(-c2ccc(Cl)cc2)n[nH]c1OCCN1CCOCC1 [Example 16]
inhibition at 10 µg/mL [1]: 28% | LD50 [2, 7]: 125 to 250 mg/kg | LD50 [2, 8]: 500 to 1000 mg/kg

Cc1c(-c2ccccc2)n[nH]c1OCCN1CCCCC1 [Example 11]
change in vivo at 10 mg/kg [3, 9]: 10% | change in vivo at 10 mg/kg [3, 10]: 18% | change in vivo at 10 mg/kg [3, 11]: 11% | ED50 [4]: 42.5 mg/kg | inhibition at 10 µg/mL [1]: 52% | LD50 [2, 7]: 184 mg/kg | LD50 [2, 8]: 250 to 500 mg/kg

Cc1c(-c2ccc(Cl)cc2)n[nH]c1OCCCN1CCCCC1 [Example 19]
change in vivo at 10 mg/kg [3, 9]: 15% | change in vivo at 10 mg/kg [3, 10]: 35% | change in vivo at 10 mg/kg [3, 11]: 15% | ED50 [4]: 21.5 mg/kg | inhibition at 10 µg/mL [1]: 52% | LD50 [2, 7]: 62 to 125 mg/kg | LD50 [2, 8]: 250 mg/kg | Cardiac frequency (result in words) ([5]; anesthetized dog, i.v.): does not change | Systolic arterial pressure (result in words) ([5]; anesthetized dog, i.v.): drops moderately | force of ventricular myocardiac contractions (result in words) ([5]; anesthetized dog, i.v.): decreases | cumulative dose at which a 20% drop of cardiac flow is reached [5, 12]: greater than 4 mg/kg

Clc1ccc(-c2cc(OCCN3CCCC3)[nH]n2)cc1 [Example 7]
change in vivo at 10 mg/kg [3, 9]: 11% | change in vivo at 10 mg/kg [3, 10]: 32% | change in vivo at 10 mg/kg [3, 11]: 45% | ED50 [4]: 66 mg/kg | inhibition at 10 µg/mL [1]: 45% | local anesthesia [6]: 100% | LD50 [2, 7]: 280 mg/kg | LD50 [2, 8]: 1000 mg/kg

Clc1ccc(-c2cc(OCCCN3CCCCC3)[nH]n2)cc1 [Example 3, 3-p-Chlorphenyl-5-piperidinopropoxy-pyrazole]
change in vivo at 10 mg/kg [3, 9]: 6% | change in vivo at 10 mg/kg [3, 10]: 46% | change in vivo at 10 mg/kg [3, 11]: 28% | ED50 [4]: 35 mg/kg | inhibition at 10 µg/mL [1]: 53% | local anesthesia [6]: 100% | LD50 [2, 8]: 700 mg/kg

Cc1c(-c2ccccc2)n[nH]c1OCCCN(C)C [Example 15]
inhibition at 10 µg/mL [1]: 40% | LD50 [2, 8]: 500 to 1000 mg/kg

Cc1c(-c2ccccc2)n[nH]c1OCCCN1CCCCC1 [Example 14]
ED50 [4]: 62 mg/kg | inhibition at 10 µg/mL [1]: 40% | LD50 [2, 8]: 250 mg/kg | Cardiac frequency (result in words) ([5]; anesthetized dog, i.v.): drops moderately | Systolic arterial pressure (result in words) ([5]; anesthetized dog, i.v.): drops moderately | force of ventricular myocardiac contractions (result in words) ([5]; anesthetized dog, i.v.): does not vary significantly

CN(C)CCCOc1cc(-c2ccc(Cl)cc2)n[nH]1 [Example 1, 3-p-Chlorophenyl-5-dimethylaminopropoxy-pyrazole]
inhibition at 10 µg/mL [1]: 30% | LD50 [2, 7]: 250 to 500 mg/kg | LD50 [2, 8]: 1000 mg/kg

Cc1c(-c2ccc(Cl)cc2)n[nH]c1OCCN1CCCC1 [Example 18]
change in vivo at 10 mg/kg [3, 9]: 2% | change in vivo at 10 mg/kg [3, 10]: 0% | change in vivo at 10 mg/kg [3, 11]: 6% | inhibition at 10 µg/mL [1]: 45% | LD50 [2, 8]: 750 mg/kg

Cc1c(-c2ccc(Cl)cc2)n[nH]c1OCCCN(C)C [Example 17]
inhibition at 10 µg/mL [1]: 32% | LD50 [2, 7]: 250 to 500 mg/kg | LD50 [2, 8]: 500 to 1000 mg/kg

c1ccc(-c2cc(OCCN3CCCC3)[nH]n2)cc1 [Example 12]
inhibition at 10 µg/mL [1]: 35% | LD50 [2, 8]: 500 to 1000 mg/kg

c1ccc(-c2cc(OCCCN3CCCCC3)[nH]n2)cc1 [Example 13]
inhibition at 10 µg/mL [1]: 44% | LD50 [2, 8]: 125 to 250 mg/kg

Clc1ccc(-c2cc(OCCN3CCCCC3)[nH]n2)cc1 [Example 6]
change in vivo at 3 mg/kg [3, 9]: 13% | change in vivo at 3 mg/kg [3, 10]: 18% | change in vivo at 3 mg/kg [3, 11]: 21% | inhibition at 10 µg/mL [1]: 46% | local anesthesia [6]: 100% | LD50 [2, 8]: 500 mg/kg

Cc1c(-c2ccccc2)n[nH]c1OCCN1CCCC1 [Example 2, 3-Phenyl-4-methyl-5-pyrrolidinoethoxy-pyrazole]
change in vivo at 10 mg/kg [3, 9]: 32% | change in vivo at 10 mg/kg [3, 10]: 44% | change in vivo at 10 mg/kg [3, 11]: 30% | inhibition at 10 µg/mL [1]: 56% | local anesthesia [6]: 100% | LD50 [2, 8]: 500 mg/kg | (dp/dt)l/p, percentage of variation ([5]; i.v., dose 0.5 mg/kg): 0% | Cardiac flow, percentage of variation ([5]; i.v., dose 0.5 mg/kg): 0% | Cardiac frequency, percentage of variation ([5]; i.v., dose 0.5 mg/kg): 0% | Contraction force of the myocardium, percentage of variation ([5]; i.v., dose 0.5 mg/kg): 0% | Systolic arterial pressure, percentage of variation ([5]; i.v., dose 0.5 mg/kg): +4% | Systolic volume, percentage of variation ([5]; i.v., dose 0.5 mg/kg): 0% | (dp/dt)l/p, percentage of variation ([5]; i.v., dose +1 mg/kg): -7% | Cardiac flow, percentage of variation ([5]; i.v., dose +1 mg/kg): -5% | Cardiac frequency, percentage of variation ([5]; i.v., dose +1 mg/kg): -8% | Contraction force of the myocardium, percentage of variation ([5]; i.v., dose +1 mg/kg): 0% | Systolic arterial pressure, percentage of variation ([5]; i.v., dose +1 mg/kg): 0% | Systolic volume, percentage of variation ([5]; i.v., dose +1 mg/kg): +3% | (dp/dt)l/p, percentage of variation ([5]; i.v., dose +3 mg/kg): -30% | Cardiac flow, percentage of variation ([5]; i.v., dose +3 mg/kg): -5% | Cardiac frequency, percentage of variation ([5]; i.v., dose +3 mg/kg): -8% | Contraction force of the myocardium, percentage of variation ([5]; i.v., dose +3 mg/kg): -20% | Systolic arterial pressure, percentage of variation ([5]; i.v., dose +3 mg/kg): 0% | Systolic volume, percentage of variation ([5]; i.v., dose +3 mg/kg): +3% | (dp/dt)l/p, percentage of variation ([5]; i.v., dose +5 mg/kg): -30% | Cardiac flow, percentage of variation ([5]; i.v., dose +5 mg/kg): -20% | Cardiac frequency, percentage of variation ([5]; i.v., dose +5 mg/kg): -8% | Contraction force of the myocardium, percentage of variation ([5]; i.v., dose +5 mg/kg): -20% | Systolic arterial pressure, percentage of variation ([5]; i.v., dose +5 mg/kg): -8% | Systolic volume, percentage of variation ([5]; i.v., dose +5 mg/kg): -12% | (dp/dt)l/p, percentage of variation ([5]; i.v., first dose of +10 mg/kg): -38% | Cardiac flow, percentage of variation ([5]; i.v., first dose of +10 mg/kg): -37% | Cardiac frequency, percentage of variation ([5]; i.v., first dose of +10 mg/kg): -8% | Contraction force of the myocardium, percentage of variation ([5]; i.v., first dose of +10 mg/kg): -10% | Systolic arterial pressure, percentage of variation ([5]; i.v., first dose of +10 mg/kg): -12% | Systolic volume, percentage of variation ([5]; i.v., first dose of +10 mg/kg): -31% | (dp/dt)l/p, percentage of variation ([5]; i.v., second dose of +10 mg/kg): -46% | Cardiac flow, percentage of variation ([5]; i.v., second dose of +10 mg/kg): -45% | Cardiac frequency, percentage of variation ([5]; i.v., second dose of +10 mg/kg): -8% | Contraction force of the myocardium, percentage of variation ([5]; i.v., second dose of +10 mg/kg): -20% | Systolic arterial pressure, percentage of variation ([5]; i.v., second dose of +10 mg/kg): -20% | Systolic volume, percentage of variation ([5]; i.v., second dose of +10 mg/kg): -40% | maximum decrease of force of ventricular myocardiac contractions ([5]; after injection of 4.5 mg/kg to 29 mg/kg): -20% | Cardiac frequency (result in words) ([5]; anesthetized dog, i.v.): drops moderately | Systolic arterial pressure (result in words) ([5]; anesthetized dog, i.v.): drops moderately | force of ventricular myocardiac contractions (result in words) ([5]; anesthetized dog, i.v.): decreases | cumulative dose after which the decrease of systolic arterial pressure appears [5, 12]: > 4.5 mg/kg | cumulative dose at which a 20% drop of cardiac flow is reached [5, 12]: greater than 9 mg/kg

CN(C)CCCOc1cc(-c2ccccc2)[nH]n1 [Example 8]
LD50 [2, 8]: 1000 mg/kg

c1ccc(-c2cc(OCCN3CCOCC3)[nH]n2)cc1 [Example 5, 3-Phenyl-5-morpholinoethoxy-pyrazole]
ED50 [4]: 79 mg/kg | inhibition at 10 µg/mL [1]: 12% | LD50 [2, 8]: 1000 mg/kg
